Test results: ChEMBL document CHEMBL4665876, “Protection of all cleavable sites of DNA with the multiple CGCG or continuous CGG sites from the restriction enzyme, indicative of simultaneous binding of small ligands” (Bioorg Med Chem, 2020)
Calls of active or inactive are those of the source. No cut-off for these calls is given here.

Tests used:
Type in all cases: nucleic-acid assay
[1] = tested on: Nucleic Acid; assay: Binding affinity to CGCG site of DNA (unknown origin) at 10 uM by PAGE analysis
[2] = tested on: Nucleic Acid; assay: Binding affinity to d(CGG)16 of DNA (unknown origin) assessed as inhibition of Fnu4HI mediated DNA hydrolysis at 10 uM preincubated for 14 hrs followed by Fnu4HI addition and measured after 60 mins by SYBR staining-based PAGE analysis; conditions: Homo sapiens
[3] = tested on: Nucleic Acid; assay: Binding affinity to d(CGG)10 of DNA (unknown origin) assessed as inhibition of Fnu4HI mediated DNA hydrolysis at 25 uM preincubated for 14 hrs followed by Fnu4HI addition and measured after 60 mins by SYBR staining-based PAGE analysis; conditions: Homo sapiens
[4] = tested on: Nucleic Acid; assay: Binding affinity to GC5(2) of DNA (unknown origin) assessed as inhibition of ACCII mediated DNA hydrolysis at 10 to 50 uM preincubated for 14 hrs followed by ACCII addition and measured after 120 mins by SYBR staining-based PAGE analysis; conditions: Homo sapiens; dose microM 10-50, time 14.0 hrs
[5] = tested on: Nucleic Acid; assay: Binding affinity to d(CGG)16 of DNA (unknown origin) assessed as inhibition of Fnu4HI mediated DNA hydrolysis at 25 uM preincubated for 14 hrs followed by Fnu4HI addition and measured after 60 mins by SYBR staining-based PAGE analysis; conditions: Homo sapiens
[6] = tested on: Nucleic Acid; assay: Binding affinity to GC5(5) of DNA (unknown origin) assessed as inhibition of ACCII mediated DNA hydrolysis at 1 uM preincubated for 14 hrs followed by ACCII addition and measured after 120 mins by SYBR staining-based PAGE analysis; conditions: Homo sapiens, time 16.0 hrs
[7] = tested on: Nucleic Acid; assay: Binding affinity to d(CGG) of DNA (unknown origin) assessed as inhibition of Fnu4HI mediated DNA hydrolysis preincubated for 14 hrs followed by Fnu4HI addition and measured after 60 mins by SYBR staining-based PAGE analysis; conditions: Homo sapiens
[8] = tested on: Nucleic Acid; assay: Binding affinity to GC5(5) of DNA (unknown origin) assessed as inhibition of ACCII mediated DNA hydrolysis at 10 to 50 uM preincubated for 14 hrs followed by ACCII addition and measured after 120 mins by SYBR staining-based PAGE analysis; conditions: Homo sapiens; dose microM 10-50, time 14.0 hrs
[9] = tested on: Nucleic Acid; assay: Binding affinity to GC1 of DNA (unknown origin) assessed as inhibition of ACCII mediated DNA hydrolysis at 50 uM preincubated for 14 hrs followed by ACCII addition and measured after 120 mins by SYBR staining-based PAGE analysis; conditions: Homo sapiens
[10] = tested on: Nucleic Acid; assay: Binding affinity to GC2(5) site of DNA (unknown origin) assessed as inhibition of ACCII mediated DNA hydrolysis at 50 uM preincubated for 14 hrs followed by ACCII addition and measured after 120 mins by SYBR staining-based PAGE analysis; conditions: Homo sapiens

SMILES | Activity [1] | Activity [6] | further results
O=C1CCCc2cc3cc(O)cc(O)c3c(O)c21 | inactive | – | –
C[C@H]1CC(=O)c2c(cc3cc(OCC(=O)NO)cc(O)c3c2O)C1 | inactive | – | Activity [2]: Active
CCC[C@@H]1C(=O)c2c(cc3cc(O)cc(O)c3c2O)C[C@H]1C | inactive | – | –
C[C@H]1CC(=O)c2c(cc3cc(OCCOCC(=O)NO)cc(O)c3c2O)C1 | – | – | Activity [3]: Active; Activity [4]: Active; Activity [5]: Active
O=C(COCCOc1cc(O)c2c(O)c3c(cc2c1)CCCC3=O)NO | – | – | Activity [4]: Active
CCC[C@@H]1C(=O)c2c(cc3cc(OCCOCCOCC(=O)O)cc(O)c3c2O)C[C@H]1C | – | Active | –
C[C@H]1CC(=O)c2c(cc3cc(OCCOCCOCC(=O)NO)cc(O)c3c2O)C1 | Active | Active | Activity [7]: inactive
CCC[C@@H]1C(=O)c2c(cc3cc(OCCOCCOCCOC)cc(O)c3c2O)C[C@H]1C | – | inactive | –
C[C@H]1CC(=O)c2c(cc3cc(O)cc(O)c3c2O)C1 | inactive | – | –
CCC[C@@H]1C(=O)c2c(cc3cc(OCCOCCOCC(=O)NO)cc(O)c3c2O)C[C@H]1C | Active | – | Activity [8]: Active; Activity [9]: inactive; Activity [10]: Active
